Experimental data: US20160030415A1, “TREATMENT AND PROPHYLAXIS OF KIDNEY DISEASES” (priority 2013, published 2016)

Tested on: STZ induced diabetic nephropathy in rats
Test: Study 3: HCQ and its combination with Losartan, Telmisartan, Azilsartan and Ramipril
Format: in vivo, Wistar rats
Details: oral once daily 8 weeks
Description: The methods described in Terri et al, Diabetes Volume, 1997, 46:1612-1618, and Takashi et al, Jpn J. Pharmacol, 1997, 75, 59-64, were followed for inducing Diabetes in rats by injecting Streptozotocin. The Efficacy of the drugs was tested in two different models, one involving comparison with diabetic control (i.e. Diabetic Rats not treated with any medication) and the other involving comparison with the anti-diabetic control group (i.e. Diabetic rats administered Glimepiride) in two separate studies.
Male Wistar rats weighing 150-350 g were divided randomly into 29 groups consisting of 6 animals each. Diabetes was induced in rats by single administration of streptozotocin (55 mg/kg/i.p) dissolved in 0.1 M-citrate buffer, pH 4.5. Group 1 (normal control) consisted of normal rats that neither received streptozotocin nor any test drug; Group 2 consisted of normal rats treated with vehicle, Group 3 served as Streptozotocin (STZ) induced diabetic control. Group 4 was diabetic rats treated with Losartan (LT) (5.5 mg/kg); Group 5 was diabetic rats treated with LT (11 mg/kg); Group 6 was diabetic rats treated with Hydroxychloroquine (HCQ) (22.5 mg/kg), Group 7 was diabetic rats treated with HCQ (45 mg/kg); Group 8 was diabetic rats treated with combination of LT (5.5 mg/kg) and HCQ (22.5 mg/kg); Group 9 was diabetic rats treated with combination of LT (5.5 mg/kg) and HCQ (45 mg/kg); Group 10 was diabetic rats treated with LT (11 mg/kg) and HCQ (22.5 mg/kg); Group 11 was diabetic rats treated with LT (11 mg/kg) and HCQ (45 mg/kg); Group 12 was diabetic rats treated with Telmisartan (TL) (5 mg/kg); Group 13 was diabetic rats treated with Telmisartan (TL) (10 mg/kg); Group 14 was diabetic rats treated with the combination of TL (5 mg/kg) and HCQ (22.5 mg/kg); Group 15 was diabetic rats treated with the combination of TL (5 mg/kg) and HCQ (45 mg/kg); Group 16 was diabetic rats treated with the combination of TL (10 mg/kg) and HCQ (22.5 mg/kg); Group 17 was diabetic rats treated with the combination of TL (10 mg/kg) and HCQ (45 mg/kg); Group 18 was diabetic rats treated with Azilsartan (AZ) (2 mg/kg); Group 19 was diabetic rats treated with Azilsartan (AZ) (4 mg/kg); Group 20 was diabetic rats treated with combination of AZ (2 mg/kg) and HCQ (22.5 mg/kg); Group 21 was diabetic rats treated with combination of AZ (2 mg/kg) and HCQ (45 mg/kg); Group 22 was diabetic rats treated with combination of AZ (4 mg/kg) and HCQ (22.5 mg/kg); Group 23 diabetic rats treated with combination of AZ (4 mg/kg) and HCQ (45 mg/kg); Group 24 was diabetic rats treated with Ramipril (RM) (0.2 mg/kg); Group 25 was diabetic rats treated with RM (2.3 mg/kg); Group 26 was diabetic rats treated with combination of RM […]) and HCQ (22.5 mg/kg); Group 27 was diabetic rats treated with combination of RM (0.2 mg/kg) and HCQ (45 mg/kg); Group 28 was diabetic rats treated with combination of RM (2.3 mg/kg) and HCQ (22.5 mg/kg); Group 29 was diabetic rats treated with combination of RM (2.3 mg/kg) and HCQ (45 mg/kg). The study drugs (LT and HCQ) were dissolved in distilled water and other study drugs (AZ, RM and TL) were suspended in 0.5% w/v sodium carboxy methyl cellulose (CMC) and administered orally once a day for eight weeks. Biochemical parameters like serum urea, serum creatinine, serum protein, and renal oxidative stress parameters like TBARS and GSH were assessed after the completion of eighth week of the study.

[1] = dose mg/kg: LT 5.5, TL 5, AZ 2, RM 0.2, HCQ 22.5, alone or combined with HCQ 22.5
[2] = dose mg/kg: LT 11, TL 10, AZ 4, RM 2.3, HCQ 45, alone or combined with HCQ 45

| Compound | Creatinine clearance [1] | GSH [1] | Serum creatinine [1] | Serum protein [1] | Serum urea [1] | TBARS [1] | Urea clearance [1] | Creatinine clearance [2] | GSH [2] | Serum creatinine [2] | Serum protein [2] | Serum urea [2] | TBARS [2] | Urea clearance [2] |
| --- | --- | --- | --- | --- | --- | --- | --- | --- | --- | --- | --- | --- | --- | --- |
| CCN(CCO)CCCC(C)Nc1ccnc2cc(Cl)ccc12 (stereo not shown) [Hydroxychloroquine, 2-[{4-[(7-chloroquinolin-4-yl)amino]pentyl}(ethyl)amino]ethanol] | 0.60 ± 0.06 mL/min | 8.59 ± 0.76 nM/mg | 0.87 ± 0.07 mg/dL | 5.57 ± 0.20 g/dL | 91.29 ± 7.29 mg/dL | 0.726 ± 0.06 nM/mg | 0.36 ± 0.03 mL/min | 0.67 ± 0.10 mL/min | 14.29 ± 1.33 nM/mg | 0.74 ± 0.12 mg/dL | 5.95 ± 0.31 g/dL | 83.64 ± 6.60 mg/dL | 0.608 ± 0.06 nM/mg | 0.42 ± 0.04 mL/min |
| CCCCc1nc(Cl)c(CO)n1Cc1ccc(-c2ccccc2-c2nn[nH]n2)cc1 [Losartan] | 0.59 ± 0.06 mL/min | 8.66 ± 0.48 nM/mg | 1.23 ± 0.18 mg/dL | 5.23 ± 0.31 g/dL | 101.45 ± 2.69 mg/dL | 0.760 ± 0.05 nM/mg | 0.33 ± 0.02 mL/min | 0.67 ± 0.12 mL/min | 12.78 ± 1.48 nM/mg | 0.99 ± 0.05 mg/dL | 5.75 ± 0.23 g/dL | 93.10 ± 4.45 mg/dL | 0.670 ± 0.05 nM/mg | 0.44 ± 0.03 mL/min |
| CCOC(=O)[C@H](CCc1ccccc1)N[C@@H](C)C(=O)N1[C@H](C(=O)O)C[C@@H]2CCC[C@@H]21 [Ramipril] | 0.54 ± 0.05 mL/min | 8.48 ± 0.59 nM/mg | 0.90 ± 0.05 mg/dL | 5.30 ± 0.36 g/dL | 98.33 ± 6.15 mg/dL | 0.716 ± 0.06 nM/mg | 0.41 ± 0.05 mL/min | 0.61 ± 0.07 mL/min | 10.57 ± 0.37 nM/mg | 0.85 ± 0.06 mg/dL | 5.67 ± 0.27 g/dL | 87.83 ± 5.23 mg/dL | 0.614 ± 0.06 nM/mg | 0.45 ± 0.05 mL/min |
| CCCc1nc2c(C)cc(-c3nc4ccccc4n3C)cc2n1Cc1ccc(-c2ccccc2C(=O)O)cc1 [Telmisartan] | 0.73 ± 0.07 mL/min | 9.65 ± 1.24 nM/mg | 1.02 ± 0.13 mg/dL | 5.94 ± 0.46 g/dL | 92.39 ± 4.06 mg/dL | 0.675 ± 0.07 nM/mg | 0.45 ± 0.05 mL/min | 0.77 ± 0.04 mL/min | 13.82 ± 0.34 nM/mg | 0.78 ± 0.07 mg/dL | 6.53 ± 0.40 g/dL | 82.71 ± 6.53 mg/dL | 0.560 ± 0.06 nM/mg | 0.47 ± 0.04 mL/min |
| CCOc1nc2cccc(C(=O)O)c2n1Cc1ccc(-c2ccccc2-c2nc(=O)o[nH]2)cc1 [Azilsartan] | 0.69 ± 0.05 mL/min | 9.54 ± 1.54 nM/mg | 0.98 ± 0.07 mg/dL | 5.79 ± 0.37 g/dL | 89.83 ± 4.67 mg/dL | 0.624 ± 0.11 nM/mg | 0.41 ± 0.07 mL/min | 0.74 ± 0.04 mL/min | 13.49 ± 0.90 nM/mg | 0.87 ± 0.04 mg/dL | 6.76 ± 0.16 g/dL | 75.94 ± 4.11 mg/dL | 0.540 ± 0.04 nM/mg | 0.44 ± 0.03 mL/min |
